{
  "source": "patent US12691101B2",
  "about": "“Compound and method for preventing or treating of respiratory diseases comprising the same as an active ingredient” (YONSEI UNIVERSITY, UNIVERSITY - INDUSTRY FOUNDATION (UIF), priority 2019, dated 2026)",
  "target": "T1, pendrin (Homo sapiens, UniProt O43511)",
  "T1 construct": "endogenous in cells; host or cells: primary HNE and HBE cells, IL-4 treated",
  "T1 sequence (O43511 whole entry)": "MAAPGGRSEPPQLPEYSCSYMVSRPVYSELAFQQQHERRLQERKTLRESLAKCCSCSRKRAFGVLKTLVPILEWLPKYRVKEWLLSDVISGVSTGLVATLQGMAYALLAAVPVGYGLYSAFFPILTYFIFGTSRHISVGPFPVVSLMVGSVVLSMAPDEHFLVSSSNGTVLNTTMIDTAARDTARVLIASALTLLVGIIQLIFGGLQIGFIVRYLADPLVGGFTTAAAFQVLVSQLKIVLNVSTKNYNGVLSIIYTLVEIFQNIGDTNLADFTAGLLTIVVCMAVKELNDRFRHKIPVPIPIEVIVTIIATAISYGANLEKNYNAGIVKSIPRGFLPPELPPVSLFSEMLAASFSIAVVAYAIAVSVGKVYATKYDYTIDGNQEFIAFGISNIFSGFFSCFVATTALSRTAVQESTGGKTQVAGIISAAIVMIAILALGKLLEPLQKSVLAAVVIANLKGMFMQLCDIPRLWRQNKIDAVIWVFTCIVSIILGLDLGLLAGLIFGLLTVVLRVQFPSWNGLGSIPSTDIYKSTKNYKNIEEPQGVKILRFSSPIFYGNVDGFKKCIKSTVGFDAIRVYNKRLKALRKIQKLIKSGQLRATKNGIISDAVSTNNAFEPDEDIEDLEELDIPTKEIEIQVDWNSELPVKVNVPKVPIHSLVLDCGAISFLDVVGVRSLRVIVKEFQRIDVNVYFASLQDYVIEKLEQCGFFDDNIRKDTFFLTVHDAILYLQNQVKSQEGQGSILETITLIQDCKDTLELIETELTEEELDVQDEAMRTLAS",
  "assay": "Pendrin-mediated Cl^−/HCO3^− exchange in IL-4-treated HNE and HBE cells",
  "assay_type": "cell-based",
  "protocol": "Chinese hamster ovary (CHO)-K1 cells were maintained in a DMEM medium containing 10% fetal bovine serum (FBS), 100 units/ml penicillin and 100 100 μg/ml streptomycin. CHO-K1 cells were stably transfected with pcDNA3.1 encoding halide sensor YFP-H148Q/I152L/F46L and human wild-type (WT)-pendrin. For distribution of primary culture of human nasal cavity epithelium (HNE) cells, passage-2 cells were seeded into transwell-transparent culture inserts with a pore size of 0.45 μm (Costar Co., Cambridge, MA) at a density of 2×10^5 cells/cm^2. […]\nFor measurement of Cl^−/HCO3^− exchange activity, intracellular pH (pHi) was measured in WT-pendrin expressing CHO-K1 and HNE cells using pH sensor SNARF5-AM (Molecular Probes). The cells were treated with 5 μM SNARF5-AM for 30 minutes, and then were equipped in a perfusion chamber on the stage of a reverse fluorescence microscope (Nikon, Tokyo, Japan) equipped with a cooled charge-coupled device camera (Zyla sCMOS), image acquisition and analysis software (Meta Imaging Series 7.7). […] SNARF5 fluorescence was recorded at 515±10 nm of the excitation wavelength and 640±10 nm of the emission wavelength, and intracellular pH calibration was performed with a solution including 145 mM KCl, 10 mM HEPES and […] nigericin having a calibrated pH to 6.2-7.6.",
  "data": [
    {"smiles": "CC(C)(C)c1ccc(C2=NC(=Cc3cccs3)C(=O)O2)cc1", "note": "[F56, 2-(4-(tert-butyl)phenyl)-4-(thiophen-2-ylmethylene)oxazol-5(4H)-one]", "values": [
      {"measurement": "inhibition of pendrin-mediated Cl^−/HCO3^− exchange activity", "setting": "IL-4-treated HNE and HBE cells, acute treatment", "result": "potentially inhibited"},
      {"measurement": "IL-4-induced upregulation of the Cl^−/HCO3^− exchange activity", "setting": "long-term treatment, HNE cells", "result": "strongly reduced"}
    ]}
  ]
}
